The text below walks through data of ChEMBL document CHEMBL2216755, “Ranking high affinity ligands of low solubility by NMR spectroscopy” (ACS Med Chem Lett, 2011).

For assay [1], the target named is T1, Peptidyl-prolyl cis-trans isomerase A (Homo sapiens, UniProt P62937). Description: Binding affinity to human cyclophilin A by intrinsic tryptophan fluorescence.
Target sequence in this assay (P62937 whole entry): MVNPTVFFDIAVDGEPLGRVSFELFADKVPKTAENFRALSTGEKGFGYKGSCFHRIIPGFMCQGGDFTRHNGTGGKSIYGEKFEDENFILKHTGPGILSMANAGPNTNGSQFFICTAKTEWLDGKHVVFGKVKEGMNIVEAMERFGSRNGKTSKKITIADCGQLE
Assay [2] deals with T1, Peptidyl-prolyl cis-trans isomerase A. Description: Binding affinity to human cyclophilin A assessed as compound-enzyme complex formation at 1:1 protein to compound ratio by NMR analysis.
Target sequence in this assay (P62937 whole entry, looked up): as the sequence (P62937 whole entry) above

As usually defined, the Kd is the equilibrium constant for the complex coming apart. A high value points to lower affinity.

The compound `C/C=C/C[C@@H](C)[C@@H](O)[C@H]1C(=O)N[C@@H](CC)C(=O)N(C)CC(=O)N(C)[C@@H](C(C)C)C(=O)N[C@@H](C(C)C)C(=O)N(C)[C@@H](CC(C)C)C(=O)N[C@@H](C)C(=O)N[C@H](C)C(=O)N(C)[C@@H](CC(C)C)C(=O)N(C)[C@@H](CC(C)C)C(=O)N(C)[C@@H](C(C)C)C(=O)N1C` showed a Kd in assay [1] of 11 nM.

`C/C=C/C[C@@H](C)[C@@H](O)[C@H]1C(=O)N[C@@H](CC)C(=O)N(C)CC(=O)N(C)[C@@H](CC(C)C)C(=O)N[C@@H](C(C)C)C(=O)N(C)[C@@H](CC(C)C)C(=O)N[C@@H](C)C(=O)N[C@H](C)C(=O)N(C)[C@@H](CC(C)C)C(=O)N(C)[C@@H](C(C)C)C(=O)N(C)[C@@H](C(C)C)C(=O)N1C`: the Activity in assay [2] stood at 53%. In assay [1], `C/C=C/C[C@@H](C)[C@@H](O)[C@H]1C(=O)N[C@@H](CC)C(=O)N(C)[C@H](C)C(=O)N(CC)[C@@H](C(C)C)C(=O)N[C@@H](C(C)C)C(=O)N(C)[C@@H](CC(C)C)C(=O)N[C@@H](C)C(=O)N[C@H](C)C(=O)N(C)[C@@H](CC(C)C)C(=O)N(C)[C@@H](CC(C)C)C(=O)N(C)[C@@H](C(C)C)C(=O)N1C` [ALISPORIVIR] had a Kd of 11 nM. In assay [2], the Activity was found to be 59%.
